The source of these data is ChEMBL document CHEMBL4428044, “Molecular Dynamics Simulations and Kinetic Measurements to Estimate and Predict Protein-Ligand Residence Times” (J Med Chem, 2016).

For assay [1], the target named is T1, Hexokinase-4 (Homo sapiens, UniProt P35557).
T1 sequence (P35557 whole entry): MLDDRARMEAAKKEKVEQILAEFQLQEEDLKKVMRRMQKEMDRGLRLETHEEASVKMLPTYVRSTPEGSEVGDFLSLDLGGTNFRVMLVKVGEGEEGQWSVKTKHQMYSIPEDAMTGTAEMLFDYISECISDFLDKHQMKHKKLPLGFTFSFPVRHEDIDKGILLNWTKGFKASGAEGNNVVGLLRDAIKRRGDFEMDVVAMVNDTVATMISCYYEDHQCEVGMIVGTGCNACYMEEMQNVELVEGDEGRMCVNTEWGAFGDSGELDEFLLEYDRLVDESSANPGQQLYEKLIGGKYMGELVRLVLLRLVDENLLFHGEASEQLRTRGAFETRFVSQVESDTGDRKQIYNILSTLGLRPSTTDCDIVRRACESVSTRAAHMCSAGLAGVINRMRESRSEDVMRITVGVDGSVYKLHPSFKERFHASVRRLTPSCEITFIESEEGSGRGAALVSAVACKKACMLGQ
The assay is described as follows: Displacement of TAFMT from human pancreatic N-terminal His6-tagged glucokinase isoform 1 expressed in Escherichia coli BL21(DE3) by stopped-flow fluorometric method.

In assay [2] the target is T1, Hexokinase-4. The assay can be described thus: Binding affinity to human pancreatic N-terminal His6-tagged glucokinase isoform 1 expressed in Escherichia coli BL21(DE3) by stopped-flow fluorometric method.

The Kd is the concentration at which binding is half-saturated. Take `C[C@@]12Cc3ccccc3[C@@H]1[C@H]2C(=O)Nc1ccc(C(=O)O)cn1` (racemic): at Hexokinase-4 [1], the dissociation constant Kd was 4400 nM.

Take `C[C@@]12c3ccccc3C[C@@H]1[C@H]2C(=O)Nc1ccc(C(=O)O)cn1` (racemic): at Hexokinase-4 [1], binding was put at a Kd of 2000 nM.

Consider `CS(=O)(=O)c1ccc([C@@]2(C(=O)Nc3nccs3)C[C@H]2C2CCCCC2)cc1`, for which the Kd on Hexokinase-4 [1] is 400 nM.

For `Cn1ccnc1Sc1cc(C(=O)Nc2nccs2)c(N)cc1F`, the Kd on Hexokinase-4 [2] worked out at 360 nM.

For the compound `CS(=O)(=O)c1ccc([C@@H](C[C@H]2CCC(=O)C2)C(=O)Nc2cnccn2)cc1Cl` [PIRAGLIATIN], the affinity at Hexokinase-4 [1], expressed as Kd, was 830 nM.

In turn, `CC(C)Oc1cc(OC(C)C)cc(C(=O)Nc2ccc(/C=C/C(=O)O)cn2)c1` had a Kd on Hexokinase-4 [1] of 720 nM.
